For one experiment, the species on record is Homo sapiens. The experiment is described as follows: Selectivity index, ratio of IC50 for recombinant TRIM24 (unknown origin) to IC50 for recombinant TRIM33 PHD bromodomain (unknown origin).
The target of experiment [1] is T1, Transcription intermediary factor 1-alpha (Homo sapiens, UniProt O15164).
T1 sequence (O15164 whole entry): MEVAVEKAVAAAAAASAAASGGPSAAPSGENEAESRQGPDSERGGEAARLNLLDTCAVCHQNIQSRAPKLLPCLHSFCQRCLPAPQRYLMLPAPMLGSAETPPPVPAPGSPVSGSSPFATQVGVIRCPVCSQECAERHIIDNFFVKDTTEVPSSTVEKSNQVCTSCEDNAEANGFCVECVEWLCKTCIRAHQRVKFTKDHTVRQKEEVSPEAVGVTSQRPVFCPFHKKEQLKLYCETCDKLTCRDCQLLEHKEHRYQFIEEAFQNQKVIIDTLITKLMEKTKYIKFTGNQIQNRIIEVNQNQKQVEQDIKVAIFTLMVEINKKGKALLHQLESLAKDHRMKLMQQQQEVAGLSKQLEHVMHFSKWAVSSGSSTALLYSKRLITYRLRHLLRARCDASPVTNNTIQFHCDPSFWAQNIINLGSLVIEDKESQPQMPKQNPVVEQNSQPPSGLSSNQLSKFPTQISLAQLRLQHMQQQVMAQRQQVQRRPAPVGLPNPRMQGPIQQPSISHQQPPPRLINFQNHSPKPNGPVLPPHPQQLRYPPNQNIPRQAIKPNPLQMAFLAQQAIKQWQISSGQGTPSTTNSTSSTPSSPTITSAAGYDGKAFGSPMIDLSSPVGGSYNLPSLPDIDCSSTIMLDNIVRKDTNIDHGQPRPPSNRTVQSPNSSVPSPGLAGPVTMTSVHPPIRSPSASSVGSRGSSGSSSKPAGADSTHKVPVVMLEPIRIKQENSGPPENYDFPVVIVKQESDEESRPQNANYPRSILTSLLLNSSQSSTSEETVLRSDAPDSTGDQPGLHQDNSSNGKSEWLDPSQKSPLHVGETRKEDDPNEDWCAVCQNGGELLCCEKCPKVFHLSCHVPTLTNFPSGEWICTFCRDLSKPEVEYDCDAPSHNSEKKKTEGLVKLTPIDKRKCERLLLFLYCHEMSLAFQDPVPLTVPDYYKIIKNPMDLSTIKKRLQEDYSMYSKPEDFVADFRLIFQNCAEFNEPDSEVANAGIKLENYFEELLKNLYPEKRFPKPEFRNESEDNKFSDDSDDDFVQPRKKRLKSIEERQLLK
The experiment is described as follows: Inhibition of recombinant TRIM24 (unknown origin) using biotinylated H3 peptide (H3K9me3K18ac) by AlphaScreen assay. A general note: In Alpha technology, singlet oxygen from a donor bead excites a nearby acceptor bead.

For experiment [2], the target named is T2, E3 ubiquitin-protein ligase TRIM33 (Homo sapiens, UniProt Q9UPN9).
T2 sequence (Q9UPN9 whole entry): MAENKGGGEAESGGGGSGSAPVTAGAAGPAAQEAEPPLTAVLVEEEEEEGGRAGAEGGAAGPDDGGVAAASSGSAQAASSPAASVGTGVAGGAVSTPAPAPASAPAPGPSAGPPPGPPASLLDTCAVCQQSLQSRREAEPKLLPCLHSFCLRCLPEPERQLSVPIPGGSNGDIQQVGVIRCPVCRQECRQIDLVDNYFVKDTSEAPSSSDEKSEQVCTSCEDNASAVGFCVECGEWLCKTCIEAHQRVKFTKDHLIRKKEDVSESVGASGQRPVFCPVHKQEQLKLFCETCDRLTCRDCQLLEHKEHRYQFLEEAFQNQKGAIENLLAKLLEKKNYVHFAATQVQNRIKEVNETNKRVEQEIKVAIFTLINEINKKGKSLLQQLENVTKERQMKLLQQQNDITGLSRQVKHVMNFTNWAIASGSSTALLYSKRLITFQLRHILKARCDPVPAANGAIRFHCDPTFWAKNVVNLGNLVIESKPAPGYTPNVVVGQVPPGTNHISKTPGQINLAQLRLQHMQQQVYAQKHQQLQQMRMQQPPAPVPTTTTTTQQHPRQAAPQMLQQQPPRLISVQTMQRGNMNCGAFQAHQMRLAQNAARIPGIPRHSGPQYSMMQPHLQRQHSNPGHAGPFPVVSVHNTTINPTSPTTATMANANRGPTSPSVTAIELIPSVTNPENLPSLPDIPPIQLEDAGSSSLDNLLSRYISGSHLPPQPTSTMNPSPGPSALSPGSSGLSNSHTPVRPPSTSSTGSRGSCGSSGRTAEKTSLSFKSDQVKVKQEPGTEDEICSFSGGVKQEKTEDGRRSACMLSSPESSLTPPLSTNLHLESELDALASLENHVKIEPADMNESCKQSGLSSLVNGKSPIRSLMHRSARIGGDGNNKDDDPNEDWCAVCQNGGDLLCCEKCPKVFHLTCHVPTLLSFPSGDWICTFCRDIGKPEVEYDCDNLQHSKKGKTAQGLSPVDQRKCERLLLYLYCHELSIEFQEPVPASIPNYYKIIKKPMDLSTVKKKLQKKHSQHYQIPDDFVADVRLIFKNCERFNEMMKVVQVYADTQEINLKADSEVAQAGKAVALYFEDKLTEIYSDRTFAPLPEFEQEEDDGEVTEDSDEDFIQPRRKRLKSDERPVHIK
The experiment can be described thus: Inhibition of recombinant TRIM33 PHD bromodomain (unknown origin) using biotinylated H3 peptide (H3K9me3K18ac) by AlphaScreen assay.

Turning to `COCCNc1c(-c2ccc3nccn3c2)nc2cnccn12`, the Ratio IC50 in the experiment filed under Homo sapiens worked out at 28.6. Further, the results for the IC50 in experiment [1] and in experiment [2] were 5450 µM and 190 µM, respectively.

On to `COc1ccc(Nc2c(-c3ccc4nccn4c3)nc3ccccn23)cc1`, for which the Ratio IC50 in the experiment filed under Homo sapiens stood at 5.88. The IC50 (as a rule, the concentration that inhibits the measured activity by half) in experiment [1] worked out at 153 µM; in experiment [2], 26 µM.

Turning to `COCCNc1c(-c2nc[nH]c2C)nc2ccccn12`, the Ratio IC50 in the experiment filed under Homo sapiens was found to be 2.17. The values for the IC50 in experiment [1] and in experiment [2] were 35.4 µM and 16.3 µM, respectively.

With `c1cn2c(NCCN3CCOCC3)c(-c3ccc4nccn4c3)nc2cn1`, the Ratio IC50 in the experiment listed under Homo sapiens is 8.45. Further, the IC50 in experiment [1] stood at 2190 µM; in experiment [2], 259 µM.

Regarding `CCCOc1ccn2c(C(C)=O)cc(-c3nc4cnccn4c3NCc3ccc(C#N)cc3)c2c1`, in the experiment listed under Homo sapiens, the Ratio IC50 turned out to be 12.4. The IC50 in experiment [1] turned out to be 819 µM; in experiment [2], 66 µM.

With `COC(=O)c1ccc2nc(-c3c[nH]c(C)n3)c(Nc3ccc(OC)cc3)n2c1`, the Ratio IC50 in the experiment listed under Homo sapiens came to 13. The IC50 stood at 111 µM in experiment [1] and 8.57 µM in experiment [2].

Consider `Cc1nc(-c2nc3ccccn3c2NC2CCCCC2)c[nH]1`, for which, in the experiment listed under Homo sapiens, the Ratio IC50 is 16.4. Moreover, the figures for the IC50 in experiment [1] and in experiment [2] were 96.5 µM and 5.9 µM, respectively.

As to `CCCOc1ccn2c(C(C)=O)cc(-c3nc4ccccn4c3NCCN3CCOCC3)c2c1`, in the experiment filed under Homo sapiens, the Ratio IC50 amounted to 3.6. The IC50 in experiment [1] turned out to be 250 µM; in experiment [2] it was 69.6 µM.

(Values after ChEMBL document CHEMBL4418499, “Inhibitors of trim33 and methods of use” (2018).)
